Measured values from patent US20200121801A1, “DRUG DELIVERY CONJUGATES CONTAINING UNNATURAL AMINO ACIDS AND METHODS FOR USING” (priority 2012, published 2020).

Tests used:
[1] = system: adjuvant-induced arthritis; assay: Adjuvant-induced arthritis (AIA) model
Method: METHOD. Adjuvant-Induced Arthritis (AIA) Model. Female Lewis rats are fed a folate-deficient diet (Harlan Teklad, Indianapolis, Ind.) for 9-10 days prior to arthritis induction. The adjuvant-induced arthritis (AIA) is induced by intradermal inoculation (at the base of tail) of 0.4-0.5 mg of heat-killed Mycobacteria butyricum (BD Diagnostic Systems, Sparks, Md.) in 100 μL light mineral oil (Sigma). Ten days after arthritis induction, paw edema (degree of arthritis) in rats is assessed using a modified arthritis scoring system: 0=no arthritis; 1=swelling in one type of joint; 2=swelling in two types of joint; 3=swelling in three types of joint; 4=swelling of the entire paw. A total score for each rat is calculated by summarizing the scores for each of the four paws, giving a maximum score of 16 for each rat. On Day 10 post arthritis induction, rats with a total arthritis score of […] were removed from the study and the remaining rats are distributed evenly across the control and treatment groups (n=5 for all groups except that n=2-3 for healthy controls). All treatments are started on Day 10 unless indicated otherwise. Rat paws are also evaluated radiographically to assess and determine bone damage.
EXAMPLE. […] Starting 9 days after induction, rats with developing AIA are distributed according to arthritis scores into three groups (n=5): (1) the untreated AIA control, (2) the EC1669 treated group, and (3) the EC1669 plus EC0923 competition group. All treatments last for 2 consecutive weeks. The animals in the AIA control group are left untreated. The animals in the EC1669 treatment group are given twice-a-week subcutaneous doses of EC1669 at a dosage of 375 nmol/kg. The animals in the EC1669 plus EC0923 group are given twice-a-week subcutaneous doses of EC1669 at a dosage of 375 nmol/kg in conjunction to EC0923 at a dosage of 187.5 μmol/kg.
EXAMPLE. […] CellCept is a prodrug of mycophenolic acid, an immunosuppressant drug used to prevent organ rejection in transplantation. CellCept is activated in vivo and releases its active product that can inhibit T cell proliferation and interfere with leukocyte adhesion to endothelial cells. To test the combination effect of EC1669 and CellCept, rats with developing AIA are distributed according to arthritis scores into four groups (n=5): (1) the untreated AIA control, (2) the EC1669 treated group, (3) the CellCept treated group, and (4) the EC1669 and CellCept combination group. All treatments start on day 9 after AIA induction and last 2 consecutive weeks. The animals in the AIA control group are untreated. The animals in the EC1669 treatment group are given weekly subcutaneous doses of EC1669 at a dosage of 1000 nmol/kg. The animals in the CellCept treatment group are given daily oral doses of CellCept at a dosage of 30 mg/kg, 5 days per week. The animals in the EC1669 and CellCept combination treatment group are given weekly subcutaneous doses of EC1669 at a dosage of 1000 nmol/kg and daily oral doses of CellCept at a dosage of 30 mg/kg, 5 days per week.

[2] = molecular target: T1, folate receptors (FR) on CHO-FRβ cells (Homo sapiens, UniProt P14207); assay: Relative affinity assay (3H-folic acid competition) on CHO-FRβ cells; format: binding; conditions: 1 h at 37° C.
T1 construct: expressed in transfected cells; host or cells: CHO cells (CHO-FRβ)
T1 sequence (P14207 17-230): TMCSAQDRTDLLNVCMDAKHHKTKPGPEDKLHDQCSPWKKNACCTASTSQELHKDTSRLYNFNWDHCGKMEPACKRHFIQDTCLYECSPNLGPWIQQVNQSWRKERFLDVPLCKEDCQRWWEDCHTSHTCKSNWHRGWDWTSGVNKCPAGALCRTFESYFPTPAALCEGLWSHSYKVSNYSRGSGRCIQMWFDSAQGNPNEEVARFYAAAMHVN

RAW264.7 macrophages = assay: XTT cell viability assay on RAW264.7 macrophages; format: cell-based, murine
Method: METHOD. Inhibition of Cellular DNA Synthesis. The compounds described herein are evaluated using an in vitro cytotoxicity assay that predicts the ability of the drug to inhibit the growth of folate receptor-positive cells, such as KB cells, RAW264.7 macrophages, and the like. It is to be understood that the choice of cell type can made on the basis of the susceptibility of those selected cells to the drug that forms the conjugate. The test compounds are comprised of folate linked to a respective chemotherapeutic drug, as prepared according to the processes described herein. The test cells are exposed to varying concentrations of folate-drug conjugate, and also in the absence or presence of at least a 100-fold excess of folic acid to assess activity as being specific to folate receptor mediation.
EXAMPLE. […] The anti-proliferative activity of EC1669 is measured in a XTT cell viability assay (FIG. 2) on RAW264.7 cells after a 2-h exposure and a total of 72 h incubation.
RAW264.7 macrophages are susceptible to the drug forming the EC1669 conjugate, aminopterin. The cell viability is assessed by adding XTT (2,3-bis(2-methoxy-4-nitro-5-sulfo-phenyl)-2H-tetrazolium-5-carboxanilide) following the manufacturer's instructions. […] The observed anti-proliferative effect was 100% competable in the presence of 100-fold excess folic acid (FA), indicating a FR-specific mode of action for EC1669.

[3] = Plasma clearance after s.c. administration; format: in vivo, Lewis rats
Method: METHOD. Plasma clearance. In vivo studies include a minimum of 3 test animals, such as rats, per time point. Illustratively, female Lewis rats with jugular vein catheters (Harlan, regular rodent diet) are given a single subcutaneous injection of test compound, such as EC1669 at 500 nmol/kg. Whole blood samples (300 μL) are collected at the following time points: 1 min, 10 min, 30 min, 1 h, 2 h, 3 h, 4 h, 8 h, and 12 h after injection. The blood samples are placed into anti-coagulant tubes containing 1.7 mg/mL of K3-EDTA and 0.35 mg/mL of N-maleoyl-beta-alanine (0.35 mg/mL) in a 0.15% acetic acid solution. Plasma samples are obtained by centrifugation for 3 min at ˜2,000 g and stored at −80° C. The amounts of test compound in the plasma and any metabolites, such as EC1669 and its two active metabolites aminopterin (AMT) and AMT hydrazide (EC0470), respectively, are quantified by LC-MS/MS.

[4] = 375 nmol/kg s.c. twice-a-week, 2 weeks

## N=c1[nH]c(N)nc2ncc(CNc3ccc(C(=O)N[C@@H](CCC(=O)NNC(=O)OCCSSC[C@@H](NC(=O)[C@H](CCC(=O)NC[C@H](O)[C@@H](O)[C@H](O)[C@H](O)CO)NC(=O)[C@@H](CCC(=O)O)NC(=O)[C@H](CCC(=O)NC[C@H](O)[C@@H](O)[C@H](O)[C@H](O)CO)NC(=O)[C@@H](CCC(=O)O)NC(=O)[C@H](CCC(=O)NC[C@H](O)[C@@H](O)[C@H](O)[C@H](O)CO)NC(=O)CC[C@H](NC(=O)c4ccc(NCc5cnc6nc(N)[nH]c(=O)c6n5)cc4)C(=O)O)C(=O)O)C(=O)O)cc3)nc12 [EC1669]
[1]; 250 nmol/kg, biw
  reduction in paw swelling: 64%
[1]; 375 nmol/kg
  whole animal toxicity (body weight): does not exhibit whole animal toxicity
[1]; [4]
  alleviation of bone damage compared to control: ~80%
  alleviation of paw swelling compared to control: ~80%
[1]; 500 nmol/kg, biw
  reduction in paw swelling: 81%
[1]; 1000 nmol/kg, siw
  reduction in paw swelling: 44%
[1]; EC0923 187.5 μmol/kg co-dosed
  anti-arthritic activity with folate competitor EC0923: competable (blocked)
[2]
  relative affinity (normalized against folic acid, set to 1): 0.13
RAW264.7 macrophages; 2-h exposure, total of 72 h incubation, read-out: relative IC50, inhibition of cell proliferation
  IC50: ~1.2 nM
RAW264.7 macrophages; 100-fold excess folic acid
  anti-proliferative effect competable by folic acid: 100%
[3]; female, Lewis, rat, in vivo, sc, EC1669 500 nmol/kg s.c., blood, read-out: elimination half-life
  half-life: ~37 min
[3]; female, Lewis, rat, in vivo, sc, EC1669 500 nmol/kg s.c., plasma, read-out: Cmax
  Cmax: ~472 nM
[3]; female, Lewis, rat, in vivo, sc, EC1669 500 nmol/kg s.c., read-out: area-under-the-curve (AUC) (converted)
  AUC: 0.867 µM·h
[3]; plasma, 12 h collection period
  % Released: AMT: 9.5%
  % Released: EC0470: 6.3%
[3]; plasma, 12 h collection period, based on AUC
  % Released: Total (AMT plus EC0470): ~15.8%
[3]; rat, in vivo
  AMT/EC0470 Ratio: 1.51
